Experimental data published in patent publication US6737383B1, “Herbicidal oxadiazolidines” (priority 1999, dated 2004).

Key:
[1] = tested on: giant foxtail; assay: Test B pre/postemergence giant foxtail; type: in vivo, Setaria faberii
Outline: (§1)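 Test chemicals in a non-phytotoxic solvent mixture with surfactant were sprayed preemergence onto planted seeds and postemergence onto plants 2 to 18 cm tall (1- to 4-leaf stage). After twelve to sixteen days in a greenhouse, injury was visually rated against untreated controls from 0 (no effect) to 10 (complete control).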

[2] = tested on: rice; assay: Test B flood test rice; type: in vivo, Oryza sativa
Outline: (§2)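 Each value is a visual injury score relative to controls, with 10 meaning complete control and 0 no effect. Evaluation took place twelve to sixteen days after the 2-leaf-stage plants were treated and kept in the greenhouse.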

[3] = tested on: morningglory; assay: Test B pre/postemergence morningglory; type: in vivo, Ipomoea hederacea
Outline: as §1

[4] = tested on: bedstraw; assay: Test B pre/postemergence bedstraw; type: in vivo, Galium aparine; conditions: Postemergence, Rate 125 g/ha; scale of 0 to 10 where 0 is no effect and 10 is complete control
Outline: as §1

[5] = tested on: purple nutsedge; assay: Test B pre/postemergence purple nutsedge; type: in vivo, Cyperus rotundus
Outline: as §1

[6] = tested on: bamyardgrass; assay: Test B flood test barnyardgrass; type: in vivo, Echinochloa crus-galli
Outline: as §2

[7] = tested on: blackgrass; assay: Test B pre/postemergence blackgrass; type: in vivo, Alopecurus myosuroides
Outline: as §1

[8] = tested on: duck salad; assay: Test B flood test duck salad; type: in vivo, Heteranthera limosa
Outline: as §2

[9] = tested on: surinam grass; assay: Test B pre/postemergence surinam grass; type: in vivo, Brachiaria decumbens
Outline: as §1

[10] = tested on: pigweed; assay: Test B pre/postemergence pigweed; type: in vivo, Amaranthus retroflexus
Outline: as §1

[11] = tested on: sugar beet; assay: Test B pre/postemergence sugar beet; type: in vivo, Beta vulgaris
Outline: as §1

[12] = tested on: corn; assay: Test B pre/postemergence corn; type: in vivo, Zea mays
Outline: as §1

[13] = tested on: rape; assay: Test B pre/postemergence rape; type: in vivo, Brassica napus
Outline: as §1

[14] = tested on: cocklebur; assay: Test B pre/postemergence cocklebur; type: in vivo, Xanthium strumarium
Outline: as §1

[15] = tested on: velvetleaf; assay: Test B pre/postemergence velvetleaf; type: in vivo, Abutilon theophrasti
Outline: as §1

[16] = Postemergence, Rate 62 g/ha, scale 0 to 10, 0 is no effect, 10 is complete control
[17] = Postemergence, Rate 125 g/ha, scale of 0 to 10 where 0 is no effect and 10 is complete control
[18] = Postemergence, Rate 250 g/ha, scale of 0 to 10, 0 is no effect, 10 is complete control
[19] = Preemergence, Rate 62 g/ha, scale of 0 to 10 where 0 is no effect and 10 is complete control
[20] = Preemergence, Rate 125 g/ha, scale of 0 to 10 where 0 is no effect and 10 is complete control
[21] = Preemergence, Rate 250 g/ha, scale 0 to 10 (0 no effect, 10 complete control)
[22] = Preemergence, Rate 500 g/ha, scale of 0 to 10 where 0 is no effect and 10 is complete control
[23] = Rate 500 g/ha, Postemergence, scale 0 to 10, 0 is no effect, 10 is complete control
[24] = Rate 62 g/ha, flood test species, Pre-emergence, visual evaluation after twelve to sixteen days
[25] = Rate 125 g/ha, under heading Pre-emergence, flood test species, visual evaluation after twelve to sixteen days
[26] = Rate 250 g/ha, Pre-emergence (flood test species), scale 0 to 10, 0 is no effect, 10 is complete control
[27] = Rate 500 g/ha, Pre-emergence section of Table B, 0 to 10 scale (0 no effect, 10 complete control)

Compound: CC[C@H](C)n1c(=O)on(C(=O)N(c2ccc(F)cc2F)C(C)C)c1=O [Compound 666]
- Plant response rating, Giant foxtail [1, 16]: 2
- Giant foxtail plant response rating [1, 17]: 8
- Giant foxtail plant response rating [1, 18]: 8
- Giant foxtail plant response rating [1, 19]: 9
- Giant foxtail plant response rating [1, 20]: 10
- Plant response rating, Giant foxtail [1, 21]: 10
- Plant response rating, Giant foxtail [1, 22]: 10
- Giant foxtail plant response rating [1, 23]: 9
- Plant response rating, Rice (0 to 10 scale, 0 is no effect, 10 is complete control) [2, 24]: 0
- Rice plant response rating (0 to 10 scale, 0 is no effect, 10 is complete control) [2, 25]: 0
- Rice plant response rating [2, 26]: 0
- Rice plant response rating [2, 27]: 0
- Plant response rating, Morningglory [3, 16]: 0
- Morningglory plant response rating [3, 17]: 1
- Morningglory plant response rating [3, 18]: 7
- Morningglory plant response rating [3, 19]: 0
- Morningglory plant response rating [3, 20]: 0
- Plant response rating, Morningglory [3, 21]: 0
- Plant response rating, Morningglory [3, 22]: 3
- Morningglory plant response rating [3, 23]: 7
- Bedstraw plant response rating [4]: 0
- Plant response rating, Nutsedge [5, 16]: 0
- Nutsedge plant response rating [5, 17]: 0
- Nutsedge plant response rating [5, 19]: 0
- Plant response rating, Nutsedge [5, 21]: 0
- Nutsedge plant response rating [5, 23]: 0
- Plant response rating, Barnyardgrass (0 to 10 scale, 0 is no effect, 10 is complete control) [6, 24]: 0
- Barnyardgrass plant response rating (0 to 10 scale, 0 is no effect, 10 is complete control) [6, 25]: 0
- Barnyardgrass plant response rating [6, 26]: 0
- Barnyardgrass plant response rating [6, 27]: 5
- Plant response rating, Blackgrass [7, 16]: 6
- Blackgrass plant response rating [7, 17]: 8
- Blackgrass plant response rating [7, 18]: 8
- Blackgrass plant response rating [7, 19]: 6
- Blackgrass plant response rating [7, 20]: 8
- Plant response rating, Blackgrass [7, 21]: 9
- Plant response rating, Blackgrass [7, 22]: 10
- Blackgrass plant response rating [7, 23]: 8
- Plant response rating, Ducksalad (0 to 10 scale, 0 is no effect, 10 is complete control) [8, 24]: 0
- Ducksalad plant response rating (0 to 10 scale, 0 is no effect, 10 is complete control) [8, 25]: 0
- Ducksalad plant response rating [8, 26]: 0
- Ducksalad plant response rating [8, 27]: 0
- Plant response rating, B. signalgrass [9, 16]: 0
- Plant response rating, B. signalgrass [9, 17]: 4
- B. signalgrass plant response rating [9, 18]: 5
- B. signalgrass plant response rating [9, 19]: 2
- B. signalgrass plant response rating [9, 20]: 3
- Plant response rating, B. signalgrass [9, 21]: 7
- Plant response rating, B. signalgrass [9, 22]: 8
- B. signalgrass plant response rating [9, 23]: 7
- Plant response rating, Redroot pigweed [10, 16]: 0
- Redroot pigweed plant response rating [10, 17]: 1
- Redroot pigweed plant response rating [10, 19]: 8
- Redroot pigweed plant response rating [10, 20]: 10
- Plant response rating, Redroot pigweed [10, 21]: 10
- Plant response rating, Redroot pigweed [10, 22]: 10
- Redroot pigweed plant response rating [10, 23]: 6
- Plant response rating, Sugarbeets [11, 16]: 0
- Sugarbeets plant response rating [11, 17]: 0
- Sugarbeets plant response rating [11, 19]: 0
- Sugarbeets plant response rating [11, 20]: 4
- Plant response rating, Sugarbeets [11, 21]: 7
- Plant response rating, Sugarbeets [11, 22]: 8
- Sugarbeets plant response rating [11, 23]: 4
- Plant response rating, Corn [12, 16]: 0
- Corn plant response rating [12, 17]: 0
- Corn plant response rating [12, 18]: 0
- Corn plant response rating [12, 19]: 0
- Corn plant response rating [12, 20]: 4
- Plant response rating, Corn [12, 21]: 8
- Plant response rating, Corn [12, 22]: 10
- Corn plant response rating [12, 23]: 0
- Plant response rating, Rape [13, 16]: 0
- Rape plant response rating [13, 17]: 0
- Rape plant response rating [13, 19]: 0
- Rape plant response rating [13, 20]: 8
- Plant response rating, Rape [13, 21]: 10
- Plant response rating, Rape [13, 22]: 10
- Rape plant response rating [13, 23]: 4
- Plant response rating, Cocklebur [14, 16]: 0
- Cocklebur plant response rating [14, 17]: 1
- Cocklebur plant response rating [14, 18]: 4
- Cocklebur plant response rating [14, 19]: 0
- Cocklebur plant response rating [14, 20]: 0
- Plant response rating, Cocklebur [14, 21]: 0
- Plant response rating, Cocklebur [14, 22]: 0
- Cocklebur plant response rating [14, 23]: 7
- Plant response rating, Velvetleaf [15, 16]: 0
- Velvetleaf plant response rating [15, 17]: 2
- Velvetleaf plant response rating [15, 19]: 5
- Velvetleaf plant response rating [15, 20]: 6
- Plant response rating, Velvetleaf [15, 21]: 7
- Plant response rating, Velvetleaf [15, 22]: 8
- Velvetleaf plant response rating [15, 23]: 6
